Blank lines part the entries; values can stand above or below the compound they belong to. Non-standard residues stand in square brackets, D forms with d. Residues, ends and D or L forms follow the SMILES beside them. *: point of attachment. Paclitaxel(2'-O-succinyl) = CC(=O)O[C@H]1C(=O)[C@@]2(C)[C@H]([C@H](OC(=O)c3ccccc3)[C@]3(O)C[C@H](OC(=O)[C@H](OC(=O)CCC(=O)*)[C@@H](NC(=O)c4ccccc4)c4ccccc4)C(C)=C1C3(C)C)[C@]1(OC(C)=O)CO[C@@H]1C[C@@H]2O; Naproxen = COc1ccc2cc([C@H](C)C(=O)*)ccc2c1; d(pY) = N[C@H](Cc1ccc(OP(=O)(O)O)cc1)C(=O)O; Acetyl(2-naphthyl) = O=C(Cc1ccc2ccccc2c1)*
Experiments:
[1] = toxicity and relative weight of treated mice; format: in vivo, Balb/c mice; settings: hydrogel, single intratumoral injection, 14 days
[2] = enzymatic hydrogelation with ALP; format: physicochemical; settings: water, pH 7.4
Protocol: To investigate the enzymatic hydrogelation of the D-peptidic precursor 11b, we prepared a series of hydrogels formed by using ALP to treat 11b at different concentrations. After dissolving 1.0, 2.0, 3.0, 4.0, and 5.0 mg of 11b in 0.5 mL of water (pH 7.6), respectively, we obtained clear solutions of 11b with different concentrations. The treatment of the solutions of 11b with ALP (1.0 U/mL) afforded the molecules of hydrogelator 12b, which are less soluble than 11b and thus self-assemble in water to form hydrogels when the concentrations of 12b are sufficient.
All the compounds were dissolved in de-ionized water. We then adjusted pH of the solutions carefully adding 1 M of NaOH and 1 M of HCl and measured the values by pH paper (pH 6.0-8.0). After prepared clear weakly basic solutions (pH 7.6 or 7.4), we then formed the hydrogels by adding enzymes (alkaline phosphatase).

[3] = system: HeLa cells; experiment: cells; format: cell-based; settings: 72 hours at 37° C., MTT; read-out: IC50, HeLa cell viability
Protocol: We seeded […] (cells/well) of health HeLa cells into 96-well plate with 100 μL of MEM medium supplemented with 10% fetal bovine serum (FBS), 100 U/mL penicillin and 100 mg mL21 streptomycin. The incubation at 37° C. and 5% CO2 for 12 hours allowed HeLa cells to attach the bottom of 96-well plate. Then we replaced the medium by another 100 μL of growth medium that contained serial diluents of our compounds (0.5% DMSO) and then incubated the cells at 37° C. and 5% CO2 for additional 72 hours. During the measurement of proliferation for HeLa cells, which were assayed into three days, we added 10 μL of (3-(4,5-Dimethylthiazol-2-yl)-2,5-diphenyltetrazolium bromide (MTT, 0.5 mg/mL) into the assigned wells in their corresponding day every 24 hours, which was followed by adding 100 μL of 0.1% sodium dodecyl sulfate (SDS) 4 hours later. Then we collected the assay results after another 24 hours incubation. Since the mitochondrial reductase in living cells reduced MTT to purple fomazan, the absorbance at 595 nm of the whole solution was finally measured by DTX 880 Multimode Detector. With MEM medium as blank and untreated HeLa cells as control, we measure each concentration of these compounds in triplicate. The IC50 values of our hydrogelators were read from their activity curves (with the measurement of 8 different concentrations) in day 3.

[4] = target: T1, COX-1 (ovine) enzyme (Ovis aries, UniProt P05979); experiment: COX Fluorescent Inhibitor Screening Assay, COX-1; format: biochemical; settings: read-out: IC50 for inhibiting COX-1 enzyme
T1 construct: purchased Cayman Chemical 700100
T1 sequence (P05979 25-600): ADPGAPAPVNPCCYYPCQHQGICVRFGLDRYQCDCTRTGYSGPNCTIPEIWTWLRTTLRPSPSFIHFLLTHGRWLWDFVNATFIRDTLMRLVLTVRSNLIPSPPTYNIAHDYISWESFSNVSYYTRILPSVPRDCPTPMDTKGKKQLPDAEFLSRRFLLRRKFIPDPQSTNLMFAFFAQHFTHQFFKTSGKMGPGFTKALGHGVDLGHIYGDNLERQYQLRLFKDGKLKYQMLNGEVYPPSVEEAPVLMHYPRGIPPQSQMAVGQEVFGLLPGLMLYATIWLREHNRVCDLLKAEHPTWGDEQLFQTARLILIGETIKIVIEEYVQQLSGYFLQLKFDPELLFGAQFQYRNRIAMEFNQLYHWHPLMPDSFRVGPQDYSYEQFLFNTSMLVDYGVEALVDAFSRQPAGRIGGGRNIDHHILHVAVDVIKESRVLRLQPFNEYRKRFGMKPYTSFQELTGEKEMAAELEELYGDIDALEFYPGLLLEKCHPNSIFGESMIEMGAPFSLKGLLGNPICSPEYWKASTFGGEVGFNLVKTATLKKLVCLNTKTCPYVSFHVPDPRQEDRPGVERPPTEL
Protocol: To study the drug efficacies of NSAID containing hydrogelators, here we used ‘COX Fluorescent Inhibitor Screening Assay Kit’ (700100; Cayman Chemical) to do in vitro inhibition assays for Npx and Npx containing hydrogelors 1, 2, 3, 4, 5, and 6. Each compound was tested by COX-1 (ovine) enzyme and COX-2 (human recombinant) enzyme separately in 96 well black assay plates. By utilizing the peroxidase component of COXs, we monitored the reaction between PGG2 and ADHP (10-acetyl-3,7-dihydroxyphenoxazine), which produced highly fluorescent compound resorufin. This resorufin can be easily analyzed by multimode detector with an excitation wavelength of 530-540 nm and an emission wavelength of 585-595 nm. All the compounds are assayed in triplicate. After the combination of 10 μl of inhibitors, 10 μl of Heme solution, 10 μL of fluorometric substrate, 10 μl of enzyme (either COX-1 or COX-2), and 150 μl of assay buffer, we quickly add 10 μl of arachidonic acid solution to initiate the reaction. Then we read the plate exactly after two minutes incubation at room temperature. In this experiment, we also measure the blank data without enzyme and inhibitors, and the control data without inhibitors. The IC50 values of these hydrogelators were read from their activity curves (FIG. 18), which were measured with 5 different concentrations of these hydrogelators (dissolved in DMSO).

[5] = rheological measurement of Npx containing hydrogels; format: physicochemical; settings: hydrogel 0.8 wt %; for storage modulus G′: 6.28 rad/s
Protocol: Rheological tests were conducted on TA ARES G2 rheometer with TA Orchestrator Software. 25 mm cone-plate was used during the experiment. 0.2 mL of hydrogel sample was placed on the cone-plate.
The measurement performs at the frequency of 6.28 rad/s (0.1 to 10% strain, frequency=10 rads^−1, 10 points per decade). Sweep mode is “log” and temperature was carried out at 25° C. The critical strain (γc) value was determined from the storage-strain profiles of the hydrogel sample. The strain applied to the hydrogel sample increased from 0.1 to 100% (10 rad/s and 25° C.). Over a certain strain, a drop in the elastic modulus was observed, and the strain amplitude at which storage moduli just begins to decrease by 5% from its maximum value was determined and taken as a measure of the critical strain of the hydrogels, which correspond to the breakdown of the cross-linked network in the hydrogel sample.
The frequency ranges from 200 rad/s to 0.1 rad/s, depending on the viscoelastic properties of each sample. A suitable strain was used to ensure the linearity of dynamic viscoelasticity.

[6] = in vitro release of hydrogelators from hydrogels; format: physicochemical; settings: 0.8 wt % hydrogel, PBS pH 7.4, 37° C., after 24 hours
Protocol: After studying their drug efficacies, the sustained release of Npx-containing hydrogelators from 0.8 wt % of hydrogels was studied. We incubated 100 μL of hydrogels at 37° C. for 24 hours with 100 μL of PBS buffer solution (pH 7.4), which is refreshed and monitored at 1 h, 2 h, 4 h, 8 h, 12 h, and 24 h. […] After 24 hours, hydrogel 1 slowly and steadily released 6.5% of the hydrogelator. […] Hydrogels 5 and 6 release 35.8% and 31.7% of hydrogelators after 24 h.
To illustrate the in vitro release profile of hydrogelators, we prepared 100 μL of the hydrogels formed by 1 (0.8 wt %, pH 4.0), 2 (0.8 wt %, pH 7.6), 3 (0.8 wt %, pH 7.6), 4 (0.8 wt %, pH 7.6), 5 (0.8 wt %, pH 7.0), and 6 (0.8 wt %, pH 7.0). With the addition of PBS buffer (100 μL, pH 7.4) onto the surface of hydrogels, the gels were incubated at 37° C. for 24 hours. The release solutions (100 μL) were taken and refreshed at […], 2 h, 4 h, 8 h, 12 h, and 24 h, which were detected by analytical HPLC at 276 nm for the quantities of released Npx containing hydrogelators 1, 2, 3, 4, 5, and 6.

[7] = system: COX-1; experiment: COX-1 (μM)
Source text: (§1) Table printed on a drawing sheet, Figure 7
Head of the field: COX-1 (μM)
(§2) First copying reader's note: The head cell at top left is split by a diagonal line (IC50 for the columns, Hydrogel for the rows); the footnote for the mark ^a is not printed on the sheet.
Where the first naming reader finds the target: head: COX-1 (μM)

[8] = target: COX-2 (Homo sapiens, UniProt P35354); experiment: COX-2 (μM)
Source text: as §1
Head of the field: COX-2 (μM)
as §2
Where the first naming reader finds the target: head: COX-2 (μM)

Sequence of COX-2 (P35354 18-604 limits assumed): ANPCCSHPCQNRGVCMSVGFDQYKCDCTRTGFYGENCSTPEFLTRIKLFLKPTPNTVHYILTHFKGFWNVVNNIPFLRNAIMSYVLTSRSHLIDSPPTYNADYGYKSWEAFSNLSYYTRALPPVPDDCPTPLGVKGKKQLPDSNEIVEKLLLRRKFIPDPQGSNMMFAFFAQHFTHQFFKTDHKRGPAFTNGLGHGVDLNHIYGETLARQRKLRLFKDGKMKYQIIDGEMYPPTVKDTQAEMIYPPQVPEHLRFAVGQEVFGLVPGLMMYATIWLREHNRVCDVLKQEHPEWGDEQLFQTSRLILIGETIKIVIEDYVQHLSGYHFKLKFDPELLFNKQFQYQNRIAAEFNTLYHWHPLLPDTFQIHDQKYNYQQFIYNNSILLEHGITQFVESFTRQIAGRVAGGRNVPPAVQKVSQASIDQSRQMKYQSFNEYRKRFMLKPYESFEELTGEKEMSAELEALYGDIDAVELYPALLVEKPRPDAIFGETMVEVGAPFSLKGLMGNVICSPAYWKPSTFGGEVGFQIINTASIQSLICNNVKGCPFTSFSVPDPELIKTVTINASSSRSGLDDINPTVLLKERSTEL

SMILES: CC(=O)O[C@H]1C(=O)[C@@]2(C)[C@H]([C@H](OC(=O)c3ccccc3)[C@]3(O)C[C@H](OC(=O)[C@H](OC(=O)CCC(=O)NCCCC[C@@H](NC(=O)[C@@H](Cc4ccccc4)NC(=O)[C@@H](Cc4ccccc4)NC(=O)Cc4ccc5ccccc5c4)C(=O)N[C@H](Cc4ccc(O)cc4)C(=O)O)[C@@H](NC(=O)c4ccccc4)c4ccccc4)C(C)=C1C3(C)C)[C@]1(OC(C)=O)CO[C@@H]1C[C@@H]2O [20b] ({Acetyl(2-naphthyl)}-[dF][dF][dK](Paclitaxel(2'-O-succinyl))[dY]-OH)
side effect from relative weights of mice [1]: limit the side effect of Taxol to the mice
solubility [2]: relatively good solubility
IC50 [3]: 0.106 µM

SMILES: CC(=O)O[C@H]1C(=O)[C@@]2(C)[C@H]([C@H](OC(=O)c3ccccc3)[C@]3(O)C[C@H](OC(=O)[C@H](OC(=O)CCC(=O)NCCCC[C@@H](NC(=O)[C@@H](Cc4ccccc4)NC(=O)[C@@H](Cc4ccccc4)NC(=O)Cc4ccc5ccccc5c4)C(=O)N[C@H](Cc4ccc(OP(=O)(O)O)cc4)C(=O)O)[C@@H](NC(=O)c4ccccc4)c4ccccc4)C(C)=C1C3(C)C)[C@]1(OC(C)=O)CO[C@@H]1C[C@@H]2O [19b, 2-(Naphthalen-2-yl)acetyl-(D)-Phe-(D)-Phe-(D)-Lys(Taxol)-(D)-Tyr phosphate] ({Acetyl(2-naphthyl)}-[dF][dF][dK](Paclitaxel(2'-O-succinyl))[d(pY)]-OH)
solubility [2]: relatively good solubility
IC50 [3]: 0.0619 µM

SMILES: COc1ccc2cc([C@H](C)C(=O)N[C@@H](Cc3ccccc3)C(=O)N[C@@H](Cc3ccccc3)C(=O)O)ccc2c1 [L-1, Naproxen-L-Phe-L-Phe]
IC50 [7]: 986 µM
IC50 [8]: 715 µM

SMILES: COc1ccc2cc([C@H](C)C(=O)N[C@H](Cc3ccccc3)C(=O)N[C@H](Cc3ccccc3)C(=O)O)ccc2c1 [compound 1, Naproxen-D-Phe-D-Phe]
critical strain [5]: 1.0%
storage modulus G′ [5]: 5.3×10^4 Pa
hydrogelator released from hydrogel [6]: 6.5%
IC50 [4]: 854 µM

SMILES: COc1ccc2cc([C@H](C)C(=O)N[C@@H](Cc3ccccc3)C(=O)N[C@@H](Cc3ccccc3)C(=O)N[C@@H](Cc3ccc(O)cc3)C(=O)O)ccc2c1 [L-2, Naproxen-L-Phe-L-Phe-L-Tyr]
IC50 [7]: 294 µM
IC50 [8]: 144 µM

The next lines start with the values.

IC50 [4]: 476 µM
SMILES: COc1ccc2cc([C@H](C)C(=O)NCCCC[C@@H](NC(=O)[C@@H](Cc3ccccc3)NC(=O)[C@H](N)Cc3ccccc3)C(=O)O)ccc2c1 [compound 5, D-Phe-D-Phe-D-Lys(naproxen)]

critical strain [5]: 5.5%
storage modulus G′ [5]: 1.5×10^2 Pa
hydrogelator released from hydrogel [6]: 19.8%
SMILES: COc1ccc2cc([C@H](C)C(=O)N[C@H](Cc3ccccc3)C(=O)N[C@H](Cc3ccccc3)C(=O)N[C@H](CCCCN)C(=O)N[C@H](Cc3ccc(O)cc3)C(=O)O)ccc2c1 [compound 4, Npx-ffky] (Naproxen-[dF][dF][dK][dY]-OH)

IC50 [4]: 367 µM
SMILES: COc1ccc2cc([C@H](C)C(=O)NCCCC[C@@H](NC(=O)[C@@H](Cc3ccccc3)NC(=O)[C@H](N)Cc3ccccc3)C(=O)N[C@H](Cc3ccc(O)cc3)C(=O)O)ccc2c1 [compound 6, D-Phe-D-Phe-D-Lys(naproxen)-D-Tyr] (H-[dF][dF][dK](Naproxen)[dY]-OH)

From patent US20150306232A1, “HYDROGELATORS COMPRISING D-AMINO ACIDS” (BRANDEIS UNIVERSITY, priority 2012, published 2015)
